Consider six compounds from PMC11822712, “Improving the Activity and Selectivity of a Scorpion-Derived Peptide, A3a, against Acinetobacter baumannii through Rational Design” (ACS Omega, 2025).

pIC50: −log10 of the molar value. Converted amounts (≈) assume the structure as drawn. Like-named read-outs stand apart in the source and are kept apart here. Positions of bridges follow the written chain, without caps; N, C: chain ends. Non-standard residues stand in square brackets, D forms with d. Residues, ends and D or L forms follow the SMILES beside them. No end group written: not given here. *: point of attachment. X1 = CC[C@H](C)CCCCC(=O)*; Dab = NCC[C@H](N)C(=O)O

One data set relates to E. coli ATCC 25922. The data set is described as follows: microbe, parasite or virus in culture. In kind it is cell-based, Escherichia coli. As to conditions: cation-adjusted MHB, OD600.
Data set [1] relates to A. baumannii ATCC 19606. Put plainly: microbe, parasite or virus in culture. In kind it is cell-based, Acinetobacter baumannii. The settings on record: cation-adjusted MHB, OD600.
The test system of data set [2] is K. pneumoniae ATCC BAA-1705. Put plainly: microbe, parasite or virus in culture. In kind it is cell-based, Klebsiella pneumoniae.
The subject of another data set is E. cloacae ATCC 700323. The data set is described as follows: microbe, parasite or virus in culture. On the procedure:
Antimicrobial activity was determined against a panel of ESKAPE pathogens. […] Bacterial colonies were picked and cultured in cation-adjusted MHB at 37 °C with 180 rpm shaking. Cultures were back-diluted to reach a starting OD600 of 0.1 and then diluted 100-fold to approximately 1 × 10^6 CFU/mL.

In a further data set the test system is P. aeruginosa ATCC 27853. The data set is described as follows: microbe, parasite or virus in culture. Type of data set: cell-based, Pseudomonas aeruginosa. The settings on record: cation-adjusted MHB, OD600.
The test system of data set [3] is S. aureus (MSSA) ATCC 25923. Put plainly: microbe, parasite or virus in culture. Type of data set: cell-based, Staphylococcus aureus. The settings on record: cation-adjusted MHB, OD600.
A further data set concerns HaCat cell. The settings on record: read-out: IC50 of HaCat cell viability; cited from earlier work. The protocol:
Previously, we amidated the C-terminus of A3 to improve its activity against Gram-negative bacteria.[14] A3, the amidated analogue A3a, and the parent peptide AamAP1 were evaluated for antibacterial activity against a panel of ESKAPE pathogens.

In another data set the test system is erythrocytes. The settings on record: 40 μM ref 13; cited from earlier work.
Data set [4] deals with A. baumannii ATCC 19606. Put plainly: Killing kinetics (CFU, Miles Misra method). In kind it is cell-based, Acinetobacter baumannii. The settings on record: 1×, 4× and 8× MIC, A3a tested at the same concentration as A3a[R7K] (Figure 3 legend). On the procedure:
Colistin (8 μg/mL) was used as a positive control. […] Following exposure, 10 μL was used from the individual wells to determine the CFUs with the Miles Misra method.[57] The limit of detection for this method was 1000 CFUs. This was done at 30 min and 2, 6, and 24 h.

The subject of data set [5] is A. baumannii ATCC 19606. Put plainly: Membrane permeabilization, SYTOX Green assay. The settings on record: SYTOX Green fluorescence, 1× MIC, 0.5 and 2 h exposure; melittin 8 μM positive control; three biological repeats. In kind it is cell-based, Acinetobacter baumannii. The protocol: For membrane permeabilization studies, A. baumannii ATCC 19606 cells were evaluated after exposure to each peptide by measuring fluorescence. The SYTOX Green assay was undertaken according to Zeng et al.,[58] with some modifications. […] Melittin (8 μM) was used as the positive control. The fluorescence was measured every 2 min at excitation and emission wavelengths of 485 and 535 nm, respectively (Spectramax, Multimode detection platform, Molecular Devices, Austria).

The mark [6] stands for this setting: approx. 1 × 10^6 CFU/mL added 1:1, 20 h, MIC = lowest concentration with growth <0.1 above background, > = no activity at highest concentration tested.
Where [7] appears, read: cation-adjusted MHB, approx. 1 × 10^6 CFU/mL added 1:1, 20 h, OD600, MIC = lowest concentration with growth <0.1 above background, > = no activity at highest concentration tested.
Where [8] appears, read: same test as μg/mL value, 20 h, read-out: MIC (value in brackets).
Setting [9] is: same test as μg/mL value, cation-adjusted MHB, 20 h, OD600.

Consider `CNC(C)C1CCC(N)C(OC2C(N)CC(N)C(OC3OCC(C)(O)C(NC)C3O)C2O)O1` (stereo not drawn) [gentamicin], for which the MIC in the data set on E. coli ATCC 25922 (Escherichia coli, ATCC25922, same test as μg/mL value, 20 h, read-out: MIC (value in brackets)) was 1 µM; in the data set on E. coli ATCC 25922 (setting [6]), 0.5 µg/mL; with A. baumannii ATCC 19606 [1] (Acinetobacter baumannii, ATCC19606, same test as μg/mL value, 20 h, read-out: MIC (value in brackets)) it was 67 µM; with A. baumannii ATCC 19606 [1] (setting [6]) it was 32 µg/mL; in data set [2] (Klebsiella pneumoniae, ATCCBAA1705, 20 h, read-out: MIC (value in brackets)), 4 µM; in data set [2] (setting [7]) it was 2 µg/mL. The MIC stood at 4 µM in the data set with E. cloacae ATCC 700323 (Enterobacter cloacae, ATCC700323, 20 h, read-out: MIC (value in brackets)); 2 µg/mL in the data set on E. cloacae ATCC 700323 (cation-adjusted MHB, approx. 1 × 10^6 CFU/mL added 1:1, 20 h, OD600, […], > = no activity at highest concentration tested); 8 µM in the data set on P. aeruginosa ATCC 27853 (Pseudomonas aeruginosa, ATCC27853, same test as μg/mL value, 20 h, read-out: MIC (value in brackets)); 4 µg/mL against P. aeruginosa ATCC 27853 (setting [6]); 1 µM in data set [3] (Staphylococcus aureus, same test as μg/mL value, 20 h, read-out: MIC (value in brackets)); 0.5 µg/mL in data set [3] (setting [6]).
`CC[C@H](C)CCCCC(=O)N[C@@H](CCN)C(=O)N[C@H](C(=O)N[C@@H](CCN)C(=O)N[C@H]1CCNC(=O)[C@H]([C@@H](C)O)NC(=O)[C@H](CCN)NC(=O)[C@H](CCN)NC(=O)[C@H](CC(C)C)NC(=O)[C@@H](Cc2ccccc2)NC(=O)[C@H](CCN)NC1=O)[C@@H](C)O` [polymyxin B] (X1-[Dab]T[Dab][Dab][Dab][dF]L[Dab][Dab]T; lactam 4-C (inferred); N-terminus assumed): the MIC against E. coli ATCC 25922 (setting [6]) is 0.5 µg/mL; in the data set on E. coli ATCC 25922 (setting [8]) it was 0.4 µM; in the data set with A. baumannii ATCC 19606 [1] (setting [6]), 1 µg/mL; with A. baumannii ATCC 19606 [1] (setting [8]), 0.76 µM; in data set [2] (setting [7]), 0.5 µg/mL; with E. cloacae ATCC 700323 (setting [7]), 0.25 µg/mL. Also, the results for the MIC (against P. aeruginosa ATCC 27853 (setting [6]); in the data set on P. aeruginosa ATCC 27853 (setting [8]); in [3] (setting [6])) were 2 µg/mL, 1.5 µM and more than 32 µg/mL, respectively. Moreover, the “MIC (value in brackets)” value was 0.4 µM (≈ 0.481 µg/mL) in data set [2] (setting [9]) and 0.19 µM (≈ 0.229 µg/mL) against E. cloacae ATCC 700323 (setting [9]).
As a reminder, the pIC50 is −log10 of the IC50, conventionally taken in molar units. Take FLFSLIRKAIGGLISAFK [A3]: in the data set with HaCat cell, the pIC50 was 4.22. In the data set on erythrocytes, the hemolysis was 36.1%.
FLFSLRKAGGLISAFK-NH2 [A3a[I(6,10)-del]]: the MIC (against E. coli ATCC 25922 (setting [6]); in the data set with A. baumannii ATCC 19606 [1] (setting [6]); in data set [2] (setting [7]); in the data set with E. cloacae ATCC 700323 (setting [7]); against P. aeruginosa ATCC 27853 (setting [6]); in data set [3] (setting [6])) was more than 128 µg/mL in each case.
With colistin, the “regrowth after 24 h in killing kinetics” value in the data set on A. baumannii ATCC 19606 [4] is listed as “regrowth at all of the concentrations tested”.
For melittin, the membrane permeabilization entry with A. baumannii ATCC 19606 [5] was “rapid membrane permeabilization”.
